Measurements from patent US20040126437A1, “Typing natural products” (priority 2000, published 2004).
In brackets after ≈: the same amount, converted by molar mass.

Legend:
[1] = system: H. pylori NTCT 11916; details: strain NTCT 11916; cited from earlier work
[2] = system: fibrosarcoma (line HT-1080); details: HT1080 fibrosarcoma cells; cited from earlier work
[3] = cited from earlier work
[4] = system: uterus colon carcinoma (line L5-26); details: L5-26 colon cells; cited from earlier work
[5] = system: H. pylori ATCC 43504; details: strain ATCC 43504; cited from earlier work
[6] = Hepatocytes; read-out: Hepatoprotection Effect IC50 μM (Hepatocytes); cited from earlier work
[7] = system: H. pylori NTCT 11637; details: strain NTCT 11637; cited from earlier work
[8] = system: insulated cavy trachea (ICT); details: ICT contracted with hystamine (1 μM), cited from earlier work; for Emax, tension: relaxation
[9] = system: Pseudomonas aeruginosa; experiment: Antibacterial activity, inhibition halos in culture; type: cell-based
Description: (§1) The insulated compounds DCBEN, DHCA, E and mixture of E+DPB have their antibacterial properties tested in cultures of E.coli, Pseudomonas aeruginosa, Staphylococcus aureus and Streptococcus faecalis. Inhibition halos (in mm) and the obtained data recorded as in FIG. 1.
(§2) Antibacterial activity of the compounds K, G1, G2 e L2 has been evaluated in cultures of E.coli, Pseudomonas aeruginosa, Staphylococcus aureus and Streptococcus faecalis. Inhibition halos have been measured (mm) and the data recorded as in FIG. 1. S.aureus, S.faecalis e E.coli, are sensitive to the tested compounds, just varying the halos, the compound G2 has the most toxity in cultures of S.aureus e S.faecalis. None of the tested compounds had effect in P.aeruginosa.

[10] = system: Escherichia coli; experiment: as above; type: cell-based; details: Escherichia coli culture
Description: as §1, §2

[11] = system: Staphylococcus aureus; experiment: as above; type: cell-based; details: for Antibacterial activty, inhibition halo: Staphylococcus aureus culture
Description: as §1, §2

[12] = system: Streptococcus faecalis; experiment: as above; type: cell-based; details: for Antibacterial activty, inhibition halo: Streptococcus faecalis culture
Description: as §1, §2

[13] = system: T. cruzi trypomastigotes; experiment: Effects against T. cruzi trypomastigotes cultures; type: cell-based, Trypanosoma cruzi
Experimental: FIG. 2 are recorded ID50 data related to trypomastigotes cultures (one of the growing stages of Trypanosoma cruzi (T.cruzi)) also to the compounds DCBEN, DHCA, E and mixture E+DPB and the effects of said compounds extracted from propolis trypomastigotes of T.cruzi (in mg/mL). […] The same result for Violet Crystal is 0.205 mg/mL, as previously mentioned. The results for insulated compounds are greater than the Violet Crystal.

[14] = insulated labdan acids; cited from earlier work

Compound | MIC (H. pylori mg/mL) NTCT 11916 [1] [mg/mL] | Antitumor activity (LD50 μg/mL) HT1080 (Fibrosarcoma) [2] [µg/mL] | Antitumor activity (LD50 μg/mL) L5-26 (Colon) [4] [µg/mL] | MIC (H. pylori mg/mL) ATCC 43504 [5] [mg/mL] | IC50 [6] [µM] | MIC (H. pylori mg/mL) NTCT 11637 [7] [mg/mL] | also measured
COc1cc(/C=C/C=O)ccc1O [Compound 9] | >1 | 4.05 | 10.44 | >1 | 45.8 | >1 | Antioxidant Activity (DPPH) [3]: 11.1 µg/mL
2-[1-hydroxymethyl]vinyl-6-acetyl-5-hydroxy-coumaran |  |  |  |  |  |  | Emax, tension [8]: 1.06 ± 0.09 g
COc1cc([C@@H]2OC=C(c3cc4cc(O)c(C(C)=O)cc4o3)C[C@H]2COC(C)=O)ccc1O [Compound 26] | >1 | 13.9 | 12.4 | >1 | 63.5 | >1 | Antioxidant Activity (DPPH) [3]: 29.1 µg/mL
CC(C)=CCc1cc(/C=C/C(=O)O)cc2c1OC(C)(C)C(O)C2 (stereo not drawn) [Compound 1] | 0.25 (≈ 0.79 mM) | 71.53 | 77.07 | 0.25 (≈ 0.79 mM) |  | 0.13 (≈ 0.411 mM) | 
CC1(C)C=Cc2cc(C=CC(=O)O)ccc2O1 [DCBEN, 2,2-Dimethyl-6-carboxiethenyl-2H-1-benzopyran] |  |  |  |  |  |  | Antibacterial activty, inhibition halo [9]: Ø; Antibacterial activty, inhibition halo [10]: + (+ halo < or = to 8 mm); Antibacterial activty, inhibition halo [11]: ++ (++ halo > or = to 8 mm and < 12 mm); Antibacterial activty, inhibition halo [12]: ++ (++ halo > or = to 8 mm and < 12 mm); EC50 ([8]; read-out: CE50 (the source's name)): 0.25 µM; Emax, tension [8]: 0.80 ± 0.05 g; ID50/24 h [13]: 1696 ± 32 µg/mL (≈ 7.37 mM)
CC(C)=CCc1cc(C=CC(=O)O)ccc1O [PHCA, 3-prenyl-4-hydroxycinnamic acid] |  |  |  |  |  |  | Emax, tension [8]: 1.258 ± 84 g
CC(C)=CCc1cc(C=CC(=O)O)cc2c1OC(C)(C)C=C2 [E] |  |  |  |  |  |  | Antibacterial activty, inhibition halo [9]: Ø; Antibacterial activty, inhibition halo [10]: + (+ halo < or = to 8 mm); Antibacterial activty, inhibition halo [11]: + (+ halo < or = to 8 mm); Antibacterial activty, inhibition halo [12]: + (+ halo < or = to 8 mm)
CC(C)=CCc1cc(/C=C/C(=O)O)cc2c1OC(C)(C)C=C2 [Compound 2] | 0.50 (≈ 1.68 mM) | 46.86 | 50.22 | 1.00 (≈ 3.35 mM) | 88.1 | 0.50 (≈ 1.68 mM) | 
CC(C)=CCc1cc(/C=C/C(=O)O)cc(C/C=C(\C)COC(=O)CCc2ccccc2)c1O [Compound 24] | 0.25 (≈ 0.557 mM) | >100 | >100 | 0.25 (≈ 0.557 mM) | 15.2 | 0.13 (≈ 0.29 mM) | Antioxidant Activity (DPPH) [3]: 12.2 µg/mL
CN(C)c1ccc(C(=C2C=CC(=[N+](C)C)C=C2)c2ccc(N(C)C)cc2)cc1.[Cl-] [Cristal violet, reference compound] |  |  |  |  |  |  | ID50/24 h [13]: 205 µg/mL
C=C1CC[C@@H]2[C@](C)(CCC[C@]2(C)C(=O)O)[C@H]1CC/C(C)=C/CO [[b], isocupressic acid] |  |  |  |  |  |  | Antibacterial activity by bioautography [14]: most active
C=C1CC[C@@H]2[C@](C)(CCC[C@]2(C)C(=O)O)[C@H]1CC[C@H](C)CCO [[d], imbricatoloic acid] |  |  |  |  |  |  | Antibacterial activity by bioautography [14]: most active
COc1cc(C=CC=O)ccc1O [Compound G2, 3-methoxy-4-hydroxycinnamaldehyde] |  |  |  |  |  |  | Antibacterial activty, inhibition halo [9]: Ø; Antibacterial activty, inhibition halo [10]: + (+ halo < or = to 8 mm); Antibacterial effect in words ([11]; S.aureus culture): most toxity; Antibacterial activty, inhibition halo [11]: ++ (++ halo > or = to 8 mm and < 12 mm); Antibacterial effect in words ([12]; S.faecalis culture): most toxity; Antibacterial activty, inhibition halo [12]: ++ (++ halo > or = to 8 mm and < 12 mm)
CC(C)=CCc1cc(/C=C/C(=O)O)ccc1O [Compound 7] | >1 | >100 | >100 | >1 | 34.6 | >1 | 
C=C(CO)[C@H]1Cc2cc(O)c(C(C)=O)cc2O1 [Compound 17] | >1 | 45.48 | 57.15 | >1 |  | >1 | 
C=C(C)C1Cc2cc(/C=C/C(=O)O)cc(CC=C(C)C)c2O1 (stereo not drawn) [Compound 25] | 0.13 (≈ 0.436 mM) | >100 | >100 | 0.13 (≈ 0.436 mM) |  | 0.25 (≈ 0.838 mM) | Antioxidant Activity (DPPH) [3]: 15.0 µg/mL
C=C(C)[C@H]1Cc2cc(C(C)=O)ccc2O1 [Compound 16] |  | 57.40 | 58.09 |  |  |  | 
CC1(C)C=Cc2cc(/C=C/C(=O)O)ccc2O1 [Compound 3] | >1 | >100 | >100 | >1 |  | >1 | 
CC1(C)C=Cc2cc(C(=O)O)ccc2O1 [Compound 4] |  | >100 | >100 |  |  |  | 
COc1cc(C=O)ccc1O [Compound G1] |  |  |  |  |  |  | Antibacterial activty, inhibition halo [9]: Ø; Antibacterial activty, inhibition halo [10]: + (+ halo < or = to 8 mm); Antibacterial activty, inhibition halo [11]: + (+ halo < or = to 8 mm); Antibacterial activty, inhibition halo [12]: + (+ halo < or = to 8 mm)
CC(C)=CCc1cc(/C=C/C(=O)O)ccc1OC(=O)CCc1ccccc1 [Compound 6] | 0.50 (≈ 1.37 mM) | 25.94 | 77.90 | 0.50 (≈ 1.37 mM) | 26.9 | 0.25 (≈ 0.686 mM) | 
C=C(COC(C)=O)[C@H]1Cc2cc(O)c(C(C)=O)cc2O1 [Compound 18] | 1.0 (≈ 3.62 mM) | >100 | >100 | 1.0 (≈ 3.62 mM) |  | 1.0 (≈ 3.62 mM) | 
COc1ccc(-c2oc3cc(O)cc(O)c3c(=O)c2O)cc1 [Compound 22] | 1.0 (≈ 3.33 mM) | 26.97 | 70.98 | >1 | 22 | 1.0 (≈ 3.33 mM) | 
CC(C)=CCc1cc(/C=C/C(=O)O)cc(CC=C(C)C)c1O [Compound 5] | >1 | 45.47 | 59.32 | >1 |  | >1 | Antioxidant Activity (DPPH) [3]: 5.6 µg/mL
COc1cc([C@@H]2c3c(oc4cc(C(C)=O)c(O)cc34)C(=O)C[C@H]2COC(C)=O)ccc1O [Compound 27] | >1 | 43.2 | 13.7 | >1 | 15 | >1 | Antioxidant Activity (DPPH) [3]: 30.1 µg/mL
